Source: publication PMC12337661, “PIEZO1 mechanical insensitivity in generalized lymphatic dysplasia with the potential for pharmacological rescue” (iScience, 2025)

Assays:
Assay in all cases: Intracellular Ca2+ measurement (fura-2), T-REx-293 cells stably transfected
Type in all cases: cell-based
WT mPIEZO1 = target: T1, WT mPIEZO1 (Mus musculus, UniProt E2JF22); conditions: 1.5 min exposure; fitted Hill equation
T1 construct: expressed in transfected cells
Protocol: (§1) T-REx-293 cell line was transfected with pcDNA4/TO-mPIEZO1 constructs using Lipofectamine 2000 (Invitrogen) as above and treated with 200 μg.mL^−1 zeocin (InvivoGen) to select for stably transfected cells. At least two strongly expressing clonal cell lines were established and tested for each variant. All cell lines were maintained in Dulbecco’s Modified Eagle’s medium (Invitrogen) supplemented with 10% heat-inactivated fetal calf serum (Sigma-Aldrich), penicillin (50 units.mL^−1) and streptomycin (0.5 mg.mL^−1) (Sigma-Aldrich) and grown at 37°C in a humidified 5% CO2 incubator.
(§2) For intracellular Ca^2+ assays, cells were plated at 80–90% confluence in 96-well plates 24 h prior to recordings (6–8 × 10^4 cells per well). […] Cells were washed with SBS and incubated at room temperature for 20 min prior to recordings. Equal volumes of 2x concentrated compounds were injected to test for acute channel activation. Pre-incubation with compounds occurred during the 20 min prior to recordings. To expose cell membranes to hypo-osmolality, an equal volume of hypotonic SBS (containing only 35 mM NaCl) was injected onto the cells. Measurements were made on a fluorescence plate reader (Flexstation III, Molecular Devices) at room temperature (21 ± 2°C). Fura-2 was excited at 340 nm and 380 nm and emitted light collected at 510 nm, with measurements shown as the change in fluorescence (F) ratio (ΔF340/380).
(§3) KC41 (Dooku1) was prepared as described.[28] All purchased chemicals and solvents were used without further purification unless otherwise stated. All compounds were at least 95% pure by 1H NMR. 1H Nuclear Magnetic Resonance spectra were recorded at 500 MHz using a Bruker DRX 500 instrument or at 400 MHz using a Bruker DPX 400. 1H spectra are referenced based on the residual proton in the solvent (e.g., the CHCl3, 0.01% in 99.99% CDCl3). Coupling constants (J) are reported to the nearest 0.1 Hz. 13C NMR spectra were recorded at 125 MHz on 500 MHz spectrometers or at 100 MHz on 400 MHz spectrometers. LC-MS was performed on a Bruker Daltronics running a gradient of increasing acetonitrile (5–95%) in H2O both containing 0.1% formic acid at 1 mL.min^−1, on a short path C18 reverse phase column, detecting compounds with both a diode array detector and a Bruker mass spectrum analyser. HRMS was performed on a Bruker Daltonics micrOTOF using positive electrospray ionisation (ES+). Automated column chromatograph was carried out using a Biotage Isolera Four, using either Sfär Silica D or KP-Silica cartridges. HPLC was performed on an Agilent 1290 Infinity Series equipped with a UV detector and Hyperprep C18 reverse phase column. Key to NMR abbreviations: s (singlet), br s (broad singlet) d (doublet), dd (doublet of doublets), ddd (doublet of doublets of doublets), t (triplet), dt (doublet of triples), q (quartet), m (multiplet), ap. t (apparent triplet). For experiments, Yoda1 and its analogues were prepared as 10 mM stock solutions in 100% dimethyl sulfoxide (DMSO) before serial dilution in DMSO and final dilution in aqueous solution. Cells were exposed to 0.1% DMSO for all concentrations of the compounds from 0 to 10 μM.

R2351Q mPIEZO1 = target: T2, R2351Q mPIEZO1 (Mus musculus, UniProt E2JF22, R2351Q); conditions: for Mean (Ca2+ signal time course, Figure 4f) / Mean (concentration-response, Figure 4g): R2351Q
T2 construct: expressed in transfected cells
Protocol: as §1, §2, §3

G1994D mPIEZO1 = target: T3, G1994D mPIEZO1 (Mus musculus, UniProt E2JF22, G1994D); conditions: for Mean (concentration-response, Figure 5g): G1994D
T3 construct: expressed in transfected cells
Protocol: as §1, §2, §3

T3 sequence (E2JF22 whole entry G1994D): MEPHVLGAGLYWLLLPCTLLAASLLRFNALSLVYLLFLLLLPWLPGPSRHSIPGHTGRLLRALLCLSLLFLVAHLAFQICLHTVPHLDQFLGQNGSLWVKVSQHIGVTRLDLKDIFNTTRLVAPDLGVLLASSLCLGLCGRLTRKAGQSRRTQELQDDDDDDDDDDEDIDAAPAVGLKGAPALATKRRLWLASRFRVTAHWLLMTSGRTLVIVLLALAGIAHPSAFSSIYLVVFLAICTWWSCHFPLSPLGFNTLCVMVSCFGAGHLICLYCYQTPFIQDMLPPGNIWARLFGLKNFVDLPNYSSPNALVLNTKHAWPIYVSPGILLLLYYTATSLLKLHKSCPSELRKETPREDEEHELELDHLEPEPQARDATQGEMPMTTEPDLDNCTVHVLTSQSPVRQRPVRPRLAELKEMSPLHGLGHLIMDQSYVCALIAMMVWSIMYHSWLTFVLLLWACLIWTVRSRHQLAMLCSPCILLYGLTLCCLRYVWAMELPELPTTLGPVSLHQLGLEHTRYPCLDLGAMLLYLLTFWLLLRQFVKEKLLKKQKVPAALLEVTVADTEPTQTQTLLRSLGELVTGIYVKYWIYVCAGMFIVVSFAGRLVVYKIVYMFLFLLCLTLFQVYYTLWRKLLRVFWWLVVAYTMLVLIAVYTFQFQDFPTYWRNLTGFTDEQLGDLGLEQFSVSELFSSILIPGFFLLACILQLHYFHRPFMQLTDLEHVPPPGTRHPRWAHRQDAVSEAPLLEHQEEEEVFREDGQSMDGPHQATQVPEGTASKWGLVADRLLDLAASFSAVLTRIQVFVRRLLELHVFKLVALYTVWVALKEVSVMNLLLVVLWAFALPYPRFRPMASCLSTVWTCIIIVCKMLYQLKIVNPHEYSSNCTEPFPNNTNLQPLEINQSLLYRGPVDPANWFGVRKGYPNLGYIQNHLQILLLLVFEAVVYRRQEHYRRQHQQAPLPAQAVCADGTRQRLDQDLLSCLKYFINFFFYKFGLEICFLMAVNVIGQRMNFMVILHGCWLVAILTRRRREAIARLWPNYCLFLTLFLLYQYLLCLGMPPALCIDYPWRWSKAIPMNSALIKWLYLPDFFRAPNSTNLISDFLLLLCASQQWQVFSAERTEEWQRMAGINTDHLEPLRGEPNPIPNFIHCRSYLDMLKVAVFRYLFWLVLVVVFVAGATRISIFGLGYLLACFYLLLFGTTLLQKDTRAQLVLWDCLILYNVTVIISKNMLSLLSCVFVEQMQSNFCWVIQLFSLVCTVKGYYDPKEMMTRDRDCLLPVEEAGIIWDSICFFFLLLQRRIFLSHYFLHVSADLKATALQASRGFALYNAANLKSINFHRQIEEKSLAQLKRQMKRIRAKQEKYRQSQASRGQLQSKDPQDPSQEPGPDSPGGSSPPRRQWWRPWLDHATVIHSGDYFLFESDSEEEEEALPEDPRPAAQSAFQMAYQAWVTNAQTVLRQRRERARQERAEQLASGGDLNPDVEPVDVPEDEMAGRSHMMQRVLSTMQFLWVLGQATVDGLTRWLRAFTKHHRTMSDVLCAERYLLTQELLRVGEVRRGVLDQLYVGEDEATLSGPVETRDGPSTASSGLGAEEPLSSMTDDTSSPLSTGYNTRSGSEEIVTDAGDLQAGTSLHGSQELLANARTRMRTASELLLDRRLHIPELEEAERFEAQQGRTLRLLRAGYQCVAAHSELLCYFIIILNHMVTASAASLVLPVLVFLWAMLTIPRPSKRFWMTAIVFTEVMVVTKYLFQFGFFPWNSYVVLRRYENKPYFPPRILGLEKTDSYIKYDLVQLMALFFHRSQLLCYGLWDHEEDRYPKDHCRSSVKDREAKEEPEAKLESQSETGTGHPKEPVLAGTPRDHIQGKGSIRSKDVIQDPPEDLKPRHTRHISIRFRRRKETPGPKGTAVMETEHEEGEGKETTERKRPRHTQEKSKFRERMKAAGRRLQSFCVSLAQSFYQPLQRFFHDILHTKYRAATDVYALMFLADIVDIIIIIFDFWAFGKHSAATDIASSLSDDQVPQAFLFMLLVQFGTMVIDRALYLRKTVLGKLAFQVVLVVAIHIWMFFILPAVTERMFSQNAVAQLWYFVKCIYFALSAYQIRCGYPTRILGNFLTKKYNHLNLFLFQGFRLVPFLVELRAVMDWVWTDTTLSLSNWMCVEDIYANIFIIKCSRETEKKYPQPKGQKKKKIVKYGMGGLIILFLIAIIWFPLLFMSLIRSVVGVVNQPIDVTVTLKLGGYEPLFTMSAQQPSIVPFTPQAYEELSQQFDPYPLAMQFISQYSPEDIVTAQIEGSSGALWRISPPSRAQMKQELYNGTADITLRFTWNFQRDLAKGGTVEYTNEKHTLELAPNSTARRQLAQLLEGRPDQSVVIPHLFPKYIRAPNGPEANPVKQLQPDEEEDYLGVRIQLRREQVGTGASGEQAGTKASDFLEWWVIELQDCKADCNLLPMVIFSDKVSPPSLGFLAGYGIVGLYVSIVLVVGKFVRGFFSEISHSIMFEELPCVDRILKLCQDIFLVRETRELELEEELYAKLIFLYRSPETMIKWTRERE
T2 sequence (E2JF22 whole entry R2351Q): as the sequence (E2JF22 whole entry G1994D) above, with D1994G, R2351Q counted along it
T1 sequence (E2JF22 whole entry): as the sequence (E2JF22 whole entry G1994D) above, with D1994G counted along it

O=C(O)c1ccc(-c2cnc(SCc3c(Cl)cccc3Cl)s2)cc1 [Yoda2b, 4-(2-([(2,6-Dichlorophenyl)methyl]sulfanyl)-1,3-thiazol-5-yl)benzoic acid]
EC50 (WT mPIEZO1): 140 nM
Mean (Ca2+ signal time course, Figure 4f) (R2351Q mPIEZO1; 0.3 µM, time 0 s): -0.00345
Mean (Ca2+ signal time course, Figure 4f) (R2351Q mPIEZO1; 0.3 µM, time 5 s): -0.00122
Mean (Ca2+ signal time course, Figure 4f) (R2351Q mPIEZO1; 0.3 µM, time 10 s): 0.01286
Mean (Ca2+ signal time course, Figure 4f) (R2351Q mPIEZO1; 0.3 µM, time 15 s): 0.00659
Mean (Ca2+ signal time course, Figure 4f) (R2351Q mPIEZO1; 0.3 µM, time 20 s): -0.0106
Mean (Ca2+ signal time course, Figure 4f) (R2351Q mPIEZO1; 0.3 µM, time 25 s): -0.00417
Mean (Ca2+ signal time course, Figure 4f) (R2351Q mPIEZO1; 0.3 µM, time 30 s): -0.1638
Mean (Ca2+ signal time course, Figure 4f) (R2351Q mPIEZO1; 0.3 µM, time 35 s): -0.1525
Mean (Ca2+ signal time course, Figure 4f) (R2351Q mPIEZO1; 0.3 µM, time 40 s): 0.1031
Mean (Ca2+ signal time course, Figure 4f) (R2351Q mPIEZO1; 0.3 µM, time 45 s): 0.1823
Mean (Ca2+ signal time course, Figure 4f) (R2351Q mPIEZO1; 0.3 µM, time 50 s): 0.2367
Mean (Ca2+ signal time course, Figure 4f) (R2351Q mPIEZO1; 0.3 µM, time 55 s): 0.2605
Mean (Ca2+ signal time course, Figure 4f) (R2351Q mPIEZO1; 0.3 µM, time 60 s): 0.2818
Mean (Ca2+ signal time course, Figure 4f) (R2351Q mPIEZO1; 0.3 µM, time 65 s): 0.2859
Mean (Ca2+ signal time course, Figure 4f) (R2351Q mPIEZO1; 0.3 µM, time 70 s): 0.3055
Mean (Ca2+ signal time course, Figure 4f) (R2351Q mPIEZO1; 0.3 µM, time 75 s): 0.2731
Mean (Ca2+ signal time course, Figure 4f) (R2351Q mPIEZO1; 0.3 µM, time 80 s): 0.2811
Mean (Ca2+ signal time course, Figure 4f) (R2351Q mPIEZO1; 0.3 µM, time 85 s): 0.2788
Mean (Ca2+ signal time course, Figure 4f) (R2351Q mPIEZO1; 0.3 µM, time 90 s): 0.2616
Mean (Ca2+ signal time course, Figure 4f) (R2351Q mPIEZO1; 0.3 µM, time 95 s): 0.2726
Mean (Ca2+ signal time course, Figure 4f) (R2351Q mPIEZO1; 0.3 µM, time 100 s): 0.2623
Mean (Ca2+ signal time course, Figure 4f) (R2351Q mPIEZO1; 0.3 µM, time 105 s): 0.2451
Mean (Ca2+ signal time course, Figure 4f) (R2351Q mPIEZO1; 0.3 µM, time 110 s): 0.2677
Mean (Ca2+ signal time course, Figure 4f) (R2351Q mPIEZO1; 0.3 µM, time 115 s): 0.2432
Mean (Ca2+ signal time course, Figure 4f) (R2351Q mPIEZO1; 0.3 µM, time 120 s): 0.2668
Mean (Ca2+ signal time course, Figure 4f) (R2351Q mPIEZO1; 0.3 µM, time 125 s): 0.2392
Mean (Ca2+ signal time course, Figure 4f) (R2351Q mPIEZO1; 0.3 µM, time 130 s): 0.2157
Mean (Ca2+ signal time course, Figure 4f) (R2351Q mPIEZO1; 3 µM, time 0 s): -0.0127
Mean (Ca2+ signal time course, Figure 4f) (R2351Q mPIEZO1; 3 µM, time 5 s): -0.01559
Mean (Ca2+ signal time course, Figure 4f) (R2351Q mPIEZO1; 3 µM, time 10 s): 0.01198
Mean (Ca2+ signal time course, Figure 4f) (R2351Q mPIEZO1; 3 µM, time 15 s): 0.01352
Mean (Ca2+ signal time course, Figure 4f) (R2351Q mPIEZO1; 3 µM, time 20 s): 7.66E-04
Mean (Ca2+ signal time course, Figure 4f) (R2351Q mPIEZO1; 3 µM, time 25 s): 0.00202
Mean (Ca2+ signal time course, Figure 4f) (R2351Q mPIEZO1; 3 µM, time 30 s): -0.4931
Mean (Ca2+ signal time course, Figure 4f) (R2351Q mPIEZO1; 3 µM, time 35 s): -0.08324
Mean (Ca2+ signal time course, Figure 4f) (R2351Q mPIEZO1; 3 µM, time 40 s): 0.5902
Mean (Ca2+ signal time course, Figure 4f) (R2351Q mPIEZO1; 3 µM, time 45 s): 0.919
Mean (Ca2+ signal time course, Figure 4f) (R2351Q mPIEZO1; 3 µM, time 50 s): 1.153
Mean (Ca2+ signal time course, Figure 4f) (R2351Q mPIEZO1; 3 µM, time 55 s): 1.288
Mean (Ca2+ signal time course, Figure 4f) (R2351Q mPIEZO1; 3 µM, time 60 s): 1.4
Mean (Ca2+ signal time course, Figure 4f) (R2351Q mPIEZO1; 3 µM, time 65 s): 1.461
Mean (Ca2+ signal time course, Figure 4f) (R2351Q mPIEZO1; 3 µM, time 70 s): 1.455
Mean (Ca2+ signal time course, Figure 4f) (R2351Q mPIEZO1; 3 µM, time 75 s): 1.399
Mean (Ca2+ signal time course, Figure 4f) (R2351Q mPIEZO1; 3 µM, time 80 s): 1.41
Mean (Ca2+ signal time course, Figure 4f) (R2351Q mPIEZO1; 3 µM, time 85 s): 1.397
Mean (Ca2+ signal time course, Figure 4f) (R2351Q mPIEZO1; 3 µM, time 90 s): 1.327
Mean (Ca2+ signal time course, Figure 4f) (R2351Q mPIEZO1; 3 µM, time 95 s): 1.295
Mean (Ca2+ signal time course, Figure 4f) (R2351Q mPIEZO1; 3 µM, time 100 s): 1.247
Mean (Ca2+ signal time course, Figure 4f) (R2351Q mPIEZO1; 3 µM, time 105 s): 1.236
Mean (Ca2+ signal time course, Figure 4f) (R2351Q mPIEZO1; 3 µM, time 110 s): 1.129
Mean (Ca2+ signal time course, Figure 4f) (R2351Q mPIEZO1; 3 µM, time 115 s): 1.087
Mean (Ca2+ signal time course, Figure 4f) (R2351Q mPIEZO1; 3 µM, time 120 s): 1.099
Mean (Ca2+ signal time course, Figure 4f) (R2351Q mPIEZO1; 3 µM, time 125 s): 1.0906
Mean (Ca2+ signal time course, Figure 4f) (R2351Q mPIEZO1; 3 µM, time 130 s): 0.9817
Mean (concentration-response, Figure 4g) (R2351Q mPIEZO1; Yoda2b concentration 0.01 µM): 6.31E-04
Mean (concentration-response, Figure 4g) (R2351Q mPIEZO1; Yoda2b concentration 0.03 µM): 0.01052
Mean (concentration-response, Figure 4g) (R2351Q mPIEZO1; Yoda2b concentration 0.1 µM): 0.03752
Mean (concentration-response, Figure 4g) (R2351Q mPIEZO1; Yoda2b concentration 0.3 µM): 0.1939
Mean (concentration-response, Figure 4g) (R2351Q mPIEZO1; Yoda2b concentration 1 µM): 0.4898
Mean (concentration-response, Figure 4g) (R2351Q mPIEZO1; Yoda2b concentration 3 µM): 0.7217
Mean (concentration-response, Figure 4g) (R2351Q mPIEZO1; Yoda2b concentration 10 µM): 0.9598
channel activation compared with Yoda1 (R2351Q mPIEZO1; side-by-side, same 96-well plate): more potently activated by Yoda2b
EC50 (G1994D mPIEZO1; 1.5 min exposure): 1000 nM
Mean (concentration-response, Figure 5g) (G1994D mPIEZO1; Yoda2b concentration 0.01 µM): -0.02242
Mean (concentration-response, Figure 5g) (G1994D mPIEZO1; Yoda2b concentration 0.03 µM): 0.00849
Mean (concentration-response, Figure 5g) (G1994D mPIEZO1; Yoda2b concentration 0.1 µM): 0.01915
Mean (concentration-response, Figure 5g) (G1994D mPIEZO1; Yoda2b concentration 0.3 µM): 0.1358
Mean (concentration-response, Figure 5g) (G1994D mPIEZO1; Yoda2b concentration 1 µM): 0.5075
Mean (concentration-response, Figure 5g) (G1994D mPIEZO1; Yoda2b concentration 3 µM): 0.8675
Mean (concentration-response, Figure 5g) (G1994D mPIEZO1; Yoda2b concentration 10 µM): 1
